Counter-ions that a name gives are not always drawn. A value given as a limit tells only on which side of the number the result lay.

The test system of data set [1] is Mouse Collagen-Induced Arthritis (mCIA). The data set can be described thus: Therapeutic mouse collagen-induced arthritis (mCIA) model. In kind it is in vivo, Male DBA/J mice. The settings on record: Mus musculus, mice, dosing day 34 through day 49; for ED80: read-out: Therapeutic mCIA (ED80 dose). An excerpt: Mouse Collagen-induced arthritis is a commonly used chronic, preclinical model of rheumatoid arthritis in which joint swelling and bone destruction occur following immunization with type II collagen. Reduction of disease incidence and severity has been shown previously to be predictive of disease-modification and signs and symptoms mitigation, respectively, in a clinical setting.
In the therapeutic mCIA model, induction of disease incidence and severity was synchronized via LPS stimulation. Male DBA/J mice were immunized with 100 ug of bovine type II collagen (bCII) on day 0. All mice received an intraperitoneal injection of 20 μg of LPS on day 28 and disease was allowed to develop through day 34. At day 34, all mice had disease (incidence=100%) with an average severity score of seven. Dosing of compounds was initiated in the therapeutic mode on day 34 and continued through day 49. Different treatments were compared by measuring the decrease in incidence (i.e., resolution of disease) and the decrease in severity of paw swelling over time.

In another data set the test system is LPS-induced serum TNFα. As to the kind of experiment: LPS-induced serum TNFα suppression, 28-day repeat dose mouse model. The settings on record: Mus musculus, 672 h, mice, oral gavage 28 days. In kind it is in vivo, Swiss Webster female mice. The protocol: (§1) The compounds were weighed and suspended in a vehicle of 0.5% methylcellulose/0.025% tween 20 (Sigma-Aldrich, St. Louis, Mo.). Compound suspensions were homogenized using a Polytron PT-3100 tissue homogenizer to create a very fine suspension and were then sonicated for 10 minutes using a water bath sonicator. Aliquots of each suspension were made for daily dosing at 0.2 ml/dose. Swiss Webster female mice, 10-12 weeks old, 28-29 grams, (Taconic, Germantown, N.Y.) were used in accordance with the guidelines of the Institutional Animal Care and Use Committee and in accordance with NIH guidelines on laboratory animal welfare. Mice were acclimated in the Pfizer animal facility for three to seven days prior to being utilized in a study. […] Each treatment group contained 5-10 mice. To establish a dosing regimen for the studies, a pilot pharmacodynamic time course experiment was conducted to quantify TNFα repression after a single ED80 dose.
(§2) Body weights were measured on the first and last day of each experiment. Blood samples were obtained after three weeks of dosing for a steady-state pharmacokinetic (PK) analysis. To assess compound effects on LPS-induced TNFα, all mice received an intraperitoneal injection of LPS (Salmonella typhosa, L-7895; Sigma-Aldrich, St. Louis) 2.5 hr after the last dose on day 28. Mice were sacrificed 90 minutes after LPS administration. Serum samples were quantified for osteocalcin and TNFα using the multiplex assays (Linco Research, Inc, St. Charles, Mo.; Luminex 100, Austin, Tex.). Samples were diluted 1:20 and the assay was run according to manufacturer's instructions. The osteocalcin standard was purchased separately (Biomedical Technologies Inc., Stoughton, Mass.). Mice were fasted for 4 hours before serum was collected for TNFα, and osteocalcin levels. For each experiment, outliers were detected by calculating the number of standard deviations from the mean of the group. If the value being examined was more than 2.5 standard deviations from the mean, it was excluded from the rest of the calculations.
(§3) The individual mouse percent inhibition values were fit to a four-parameter logistic model using the dose mean for each group.
(§4) ED50 and ED80 values were obtained for the various endpoints using a four-parameter logistic fit. For compounds which were tested multiple times, ED50 and ED80 values were obtained using four-parameter logistic fits of the combined data from multiple experiments.

Another data set concerns Serum osteocalcin. As to the kind of experiment: Serum osteocalcin suppression, 28-day repeat dose mouse model. In kind it is in vivo, Swiss Webster female mice. The settings on record: mice, oral gavage 28 days, serum osteocalcin. Here is the method: as §1, §2, §3, §4
The target in data set [2] is T1, full-length glucocorticoid (GR) protein (Homo sapiens, UniProt P04150).
T1 construct: purchased Invitrogen
T1 sequence (P04150 1-777): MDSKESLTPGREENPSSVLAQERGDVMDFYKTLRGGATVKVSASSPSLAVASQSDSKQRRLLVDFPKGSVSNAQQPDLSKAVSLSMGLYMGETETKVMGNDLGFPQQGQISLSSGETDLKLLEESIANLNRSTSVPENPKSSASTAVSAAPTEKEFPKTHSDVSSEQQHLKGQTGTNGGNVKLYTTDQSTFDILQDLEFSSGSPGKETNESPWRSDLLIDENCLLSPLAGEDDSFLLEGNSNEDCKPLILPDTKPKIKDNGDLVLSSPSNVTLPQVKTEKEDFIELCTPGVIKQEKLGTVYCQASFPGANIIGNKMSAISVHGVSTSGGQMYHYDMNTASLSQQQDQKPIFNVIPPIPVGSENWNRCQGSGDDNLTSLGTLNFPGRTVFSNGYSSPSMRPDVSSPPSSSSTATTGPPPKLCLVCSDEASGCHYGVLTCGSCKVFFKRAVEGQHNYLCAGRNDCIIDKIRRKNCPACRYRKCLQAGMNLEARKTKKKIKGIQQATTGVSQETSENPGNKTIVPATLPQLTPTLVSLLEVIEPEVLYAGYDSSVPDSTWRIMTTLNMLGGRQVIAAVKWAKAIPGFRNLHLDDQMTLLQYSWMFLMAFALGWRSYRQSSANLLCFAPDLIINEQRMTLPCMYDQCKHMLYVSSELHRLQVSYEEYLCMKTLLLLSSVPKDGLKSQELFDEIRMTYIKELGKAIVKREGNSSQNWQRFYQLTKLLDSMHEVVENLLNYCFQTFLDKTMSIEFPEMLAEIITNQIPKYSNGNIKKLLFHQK
The data set can be described thus: Glucocorticoid receptor fluorescence polarization ligand binding (GRFP) assay. An excerpt: GRFP: Glucocorticoid Receptor Binding
The glucocorticoid receptor fluorescence polarization ligand binding (GRFP) assay is used to evaluate direct binding of testing compounds to full-length glucocorticoid (GR) protein. Reagents for this assay are purchased from Invitrogen in a test kit. A fluorescent labeled GR ligand is used as a fluorescent tracer and test compounds compete with the fluorescent tracer for GR binding. The change in polarization value in the presence of test compounds is due to binding of test compounds to (GR) and is used to determine IC50 and relative binding affinity of test compounds for GR.
Background: Fluorescence polarisation rises when a labelled molecule tumbles more slowly, as on binding a larger partner.

As to `Cc1c(NC(=O)c2ccc3c(c2)CC[C@@H]2C[C@@](O)(C(F)(F)F)CC[C@@]32Cc2ccccc2)ccc[n+]1[O-]` [Comparator G], in data set [1] (read-out: Therapeutic mCIA (ED50 dose)), the ED50 came to 0.6 mg/kg. For the same compound, the ED80 in data set [1] came to 3 mg/kg; in the data set with LPS-induced serum TNFα it was 3.33 mg/kg. Besides, the “Osteocalcin Suppression (ED80 dose)” value in the data set with Serum osteocalcin was determined as 7.27 mg/kg.

Turning to `Cc1ncccc1NC(=O)c1ccc2c(c1)C(=O)C[C@@H]1C[C@@](O)(C(F)(F)F)CC[C@@]21Cc1ccccc1` [Comparator E], the ED80 in data set [1] was 2.6 mg/kg; in the data set with LPS-induced serum TNFα, 1.18 mg/kg. In addition, the “Osteocalcin Suppression (ED80 dose)” value in the data set with Serum osteocalcin stood at 1.71 mg/kg. In data set [2], this compound had an IC50 of 1.18 nM.

Regarding `Cc1ncccc1NC(=O)c1ccc2c(c1)CC[C@@H]1C[C@@](O)(C(F)F)CC[C@@]21Cc1ccccc1` [Comparator H, (4βS,7R,8αR)-4-benzyl-7-(difluoromethyl)-7-hydroxy-N-(2-methylpyridin-3-yl)-4β,5,6,7,8,8α,9,10 octahydrophenanthrene-2-carboxamide], the ED80 with LPS-induced serum TNFα came to 0.72 mg/kg. This compound came in with an IC50 in data set [2] of 8.03 nM.

With `Cc1ncccc1NC(=O)c1ccc2c(c1)CC[C@@H]1C[C@@](O)(CCC(F)(F)F)CC[C@@]21Cc1ccccc1` [Comparator C, (4βS,7S,8αR)-4β-benzyl-7-hydroxy-N-(2-methylpyridin-3-yl)-7-(3,3,3-trifluoropropyl)-4β,5,6,7,8,8α,9,10-octahydrophenanthrene-2-carboxamide], the ED80 was above 10 mg/kg in data set [1] and 1.33 mg/kg in the data set on LPS-induced serum TNFα. Moreover, the IC50 in data set [2] stood at 1.22 nM.

Take `Cc1ncccc1NC(=O)c1ccc2c(c1)[C@H](O)C[C@@H]1C[C@@](O)(C(F)(F)F)CC[C@@]21Cc1ccccc1` [Comparator F, (4βS,7R,8αR,10R)-4β-benzyl-7,10-dihydroxy-N-(2-methylpyridin-3-yl)-7-(trifluoromethyl)-4β,5,6,7,8,8α,9,10-octahydrophenanthrene-2-carboxamide]: the ED80 is above 10 mg/kg in data set [1] and 5.67 mg/kg in the data set with LPS-induced serum TNFα. Also, the “Osteocalcin Suppression (ED80 dose)” value in the data set on Serum osteocalcin is listed as above 10 mg/kg. The same compound gave an IC50 in data set [2] of 1.9 nM.

Consider `Cc1ncc(NC(=O)c2ccc3c(c2)CC[C@@H]2C[C@@](O)(CCC(F)(F)F)CC[C@@]32Cc2ccccc2)c(C)n1` [Comparator J], for which the ED80 was above 20 mg/kg in data set [1] and 0.79 mg/kg in the data set with LPS-induced serum TNFα. In data set [2], this compound had a 50% inhibitory concentration (IC50) of 4.58 nM.

As for `Cc1ncccc1NC(=O)c1ccc2c(c1)C=C[C@@H]1C[C@@](O)(C(F)(F)F)CC[C@@]21Cc1ccccc1` [Comparator I, (4βS,7R,8αR)-4β-benzyl-7-hydroxy-N-(2-methylpyridin-3-yl)-7-(trifluoromethyl)-4β,5,6,7,8,8α-hexahydrophenanthrene-2-carboxamide], the ED80 was above 20 mg/kg in data set [1] and 5.45 mg/kg with LPS-induced serum TNFα. Moreover, the “Osteocalcin Suppression (ED80 dose)” value in the data set with Serum osteocalcin is listed as above 20 mg/kg. In data set [2], this compound came in with an IC50 of 9.12 nM.

As for `Cc1ncccc1CNC(=O)c1ccc2c(c1)CC[C@@H]1C[C@@](O)(CCC(F)(F)F)CC[C@@]21Cc1ccccc1` [Comparator A, (4βS,7S,8αR)-4β-benzyl-7-hydroxy-N-((2-methylpyridin-3-yl)methyl)-7-(3,3,3-trifluoropropyl)-4β,5,6,7,8,8α,9,10-octahydrophenanthrene-2-carboxamide], in data set [2], the IC50 amounted to 7.1 nM.

In the data set on LPS-induced serum TNFα, `Cc1ccncc1NC(=O)c1ccc2c(c1)CC[C@@H]1C[C@@](O)(C(F)(F)F)CC[C@@]21Cc1ccccc1` [Comparator D, (4βS,7R,8αR)-4β-benzyl-7-hydroxy-N-(4-methylpyridin-3-yl)-7-(trifluoromethyl)-4β,5,5,7,8,8α,9,10-octahydrophenanthrene-2-carboxamide] displayed an ED80 above 20 mg/kg. In addition, the half-inhibitory concentration (IC50) in data set [2] was determined as 2.06 nM.

`Cc1ncccc1NC(=O)c1ccc2c(c1)CC[C@@H]1C[C@@](O)(C(F)(F)F)CC[C@@]21Cc1ccccc1` [Example 1 HCL salt] came in with an IC50 in data set [2] of 1.31 nM.

On to `Cc1cnc(NC(=O)c2ccc3c(c2)CC[C@@H]2C[C@@](O)(C(F)(F)F)CC[C@@]32Cc2ccccc2)c(C)n1` [Comparator B, (4βS,7R,8αR)-4β-benzyl-N-(3,5-dimethylpyrazin-2-yl)-7-hydroxy-7-(trifluoromethyl)-4β,5,6,7,8,8α,9,10-octahydrophenanthrene-2-carboxamide], for which the ED80 in data set [1] is above 10 mg/kg; in the data set on LPS-induced serum TNFα, 2.91 mg/kg. Further, the “Osteocalcin Suppression (ED80 dose)” value in the data set on Serum osteocalcin is above 10 mg/kg. For the same compound, the half-inhibitory concentration (IC50) in data set [2] stood at 0.35 nM.

`Cc1ncccc1NC(=O)c1ccc2c(c1)CC[C@@H]1C[C@@](OC(=O)OCC(C)C)(C(F)(F)F)CC[C@@]21Cc1ccccc1` [Comparator K, (2R,4αS,10αR)-4-benzyl-7-((2-methylpyridin-3-yl)carbamoyl)-2-(trifluoromethyl)-1,2,3,4,4α,9,10,10α-octahydrophenanthren-2-yl isobutyl carbonate] displayed a 50% inhibitory concentration (IC50) in data set [2] of 895 nM.

In general, ED50 refers to the dose that gives a 50% effect, or the effect in half of the subjects. For orientation: IC50 means the point on the concentration scale where inhibition reaches its midpoint. Low values mean higher potency, high ones lower potency.
